# According to US10246469B2, “Biaryl kinase inhibitors” (BRISTOL-MYERS SQUIBB COMPANY, priority 2015, dated 2019):
# Target: T1, GST-Xa-hAAK1 (Homo sapiens, UniProt Q2M2I8)
# T1 construct: GST (N); Factor Xa cleavage site (Xa) (internal); made in house
# Test: AAK1 Kinase Assay
# Format: biochemical
# Settings: bacterially expressed GST-Xa-hAAK1 3.5 nM; ATP 22 μM; fluoresceinated peptide 1.5 μM; 3 hours at room temperature; Caliper LabChip 3000
# Summary of the method: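 Bacterially expressed GST-Xa-hAAK1 (3.5 nM) phosphorylated 1.5 μM 5-FAM peptide with 22 μM ATP in Tris pH 7.4, MgCl2, DTT, 1.6% DMSO, 3 h at room temperature. EDTA-stopped; product separated electrophoretically on Caliper LabChip. IC50 from eleven concentrations by non-linear regression.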
# T1 sequence (Q2M2I8 whole entry): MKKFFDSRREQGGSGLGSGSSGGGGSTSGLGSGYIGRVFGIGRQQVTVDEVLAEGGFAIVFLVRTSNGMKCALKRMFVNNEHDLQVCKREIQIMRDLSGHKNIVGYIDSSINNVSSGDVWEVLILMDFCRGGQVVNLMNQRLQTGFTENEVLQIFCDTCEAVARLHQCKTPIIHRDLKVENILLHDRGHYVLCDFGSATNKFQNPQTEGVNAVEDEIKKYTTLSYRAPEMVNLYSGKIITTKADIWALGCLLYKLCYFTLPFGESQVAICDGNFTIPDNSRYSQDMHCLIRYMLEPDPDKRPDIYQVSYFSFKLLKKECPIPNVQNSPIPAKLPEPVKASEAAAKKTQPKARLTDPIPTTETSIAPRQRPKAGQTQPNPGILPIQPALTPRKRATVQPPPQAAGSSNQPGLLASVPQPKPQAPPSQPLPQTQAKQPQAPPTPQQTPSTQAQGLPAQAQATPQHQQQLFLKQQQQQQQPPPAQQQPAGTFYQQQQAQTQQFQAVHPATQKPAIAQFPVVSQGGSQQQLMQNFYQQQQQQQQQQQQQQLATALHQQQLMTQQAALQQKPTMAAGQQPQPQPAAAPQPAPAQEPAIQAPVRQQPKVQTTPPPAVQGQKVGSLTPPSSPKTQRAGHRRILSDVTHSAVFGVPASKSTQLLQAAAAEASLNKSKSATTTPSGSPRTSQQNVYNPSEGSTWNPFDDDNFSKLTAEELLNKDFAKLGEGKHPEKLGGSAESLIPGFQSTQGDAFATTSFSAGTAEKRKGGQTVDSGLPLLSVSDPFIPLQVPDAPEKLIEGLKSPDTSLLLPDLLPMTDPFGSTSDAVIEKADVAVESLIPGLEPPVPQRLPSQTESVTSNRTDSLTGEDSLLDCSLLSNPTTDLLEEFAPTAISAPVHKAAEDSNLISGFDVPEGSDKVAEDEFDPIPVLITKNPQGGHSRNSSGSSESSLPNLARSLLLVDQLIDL
row,IC50 [nM],SMILES
1,0.8,"CC(C)C[C@](C)(N)COc1ncc(-c2ccnc3ccnn23)cc1Cl [Example 272, (S)-1-((3-chloro-5-(pyrazolo[1,5-a]pyrimidin-7-yl)pyridin-2-yl)oxy)-2,4-dimethylpentan-2-amine]"
2,1.2,"CC(C)C[C@](C)(N)COc1ccc(-c2ccnn3cc(C4CC4)nc23)cc1C#N [Example 499, (S)-2-((2-amino-2,4-dimethylpentyl)oxy)-5-(2-cyclopropylimidazo[1,2-b]pyridazin-8-yl)benzonitrile]"
3,362,"Cc1cc(-c2ccc(OC[C@@](C)(N)CC(C)C)c3ncsc23)ccn1 [Example 267, (S)-2,4-dimethyl-1-((7-(2-methylpyridin-4-yl)benzo[d]thiazol-4-yl)oxy)pentan-2-amine]"
4,1.8,"CC(C)CC(N)(CO)COc1cnc(-c2ccnc(C(F)F)c2)cc1C(F)F (stereo not shown) [Example 277, 2-amino-2-(((2′,4-bis(difluoromethyl)-[2,4′-bipyridin]-5-yl)oxy)methyl)-4-methylpentan-1-ol]"
5,0.9,"CC(C)C[C@](C)(N)COc1ccc(-c2ccnc3[nH]ncc23)cc1F [Example 288, (S)-1-(2-fluoro-4-(1H-pyrazolo[3,4-b]pyridin-4-yl)phenoxy)-2,4-dimethylpentan-2-amine]"
6,0.2,"CC(C)C[C@](C)(N)COc1ccc(-c2ccnc3ccnn23)cc1CF [Example 353, (S)-1-(2-(fluoromethyl)-4-(pyrazolo[1,5-a]pyrimidin-7-yl)phenoxy)-2,4-dimethylpentan-2-amine]"
7,765,"CC(C)C[C@](C)(N)COc1ccc(-c2ccnc3c2C(=O)N(C)C3)cc1F [Example 413, (S)-4-(4-((2-amino-2,4-dimethylpentyl)oxy)-3-fluorophenyl)-6-methyl-6,7-dihydro-5H-pyrrolo [3,4-b]pyridin-5-one]"
8,24,"CC(C)C[C@](C)(N)COc1ccc(-c2ncnc3c2ccn3C)cc1C#N [Example 364, (S)-2-((2-amino-2,4-dimethylpentyl)oxy)-5-(7-methyl-7H-pyrrolo[2,3-d]pyrimidin-4-yl)benzonitrile]"
9,0.5,"CC(C)C[C@](C)(N)COc1ccc(-c2ccnc(NC(=O)C3CCC3)c2)cc1C(F)(F)F [Example 390, (S)—N-(4-(4-((2-amino-2,4-dimethylpentyl)oxy)-3-(trifluoromethyl)phenyl)pyridin-2-yl)cyclobutanecarboxamide]"
10,11,"Cc1cn2nccc(-c3ccc(OC[C@@](C)(N)CC(C)C)c(C)n3)c2n1 [Example 452, (S)-2,4-dimethyl-1-((2-methyl-6-(2-methylimidazo[1,2-b]pyridazin-8-yl)pyridin-3-yl)oxy)pentan-2-amine]"
11,144,"Cc1cc(-c2cnc3cccnn23)ccc1OC[C@@](C)(N)CC(C)C [Example 502, (S)-1-(4-(imidazo[1,2-b]pyridazin-3-yl)-2-methylphenoxy)-2,4-dimethylpentan-2-amine]"
12,98,"CC(C)C[C@](C)(N)COc1ccc(-c2ncnc3c2ccn3C)cc1F [Example 365, (S)-1-(2-fluoro-4-(7-methyl-7H-pyrrolo [2,3-d]pyrimidin-4-yl)phenoxy)-2,4-dimethylpentan-2-amine]"
13,94,CC(C)C[C@](C)(N)COc1ccc(-c2cnn3cccnc23)cc1Cl [Example 332]
14,310,"Cc1n[nH]c(C)c1-c1ccc(OC[C@@](C)(N)CC(C)C)c(F)c1 [Example 251, (S)-1-(4-(3,5-dimethyl-1H-pyrazol-4-yl)-2-fluorophenoxy)-2,4-dimethylpentan-2-amine]"
15,0.4,"CC(C)C[C@](C)(N)COc1ccc(-c2ccnc3ccnn23)cc1C(F)(F)F [Example 467, (S)-2,4-dimethyl-1-(4-(pyrazolo[1,5-a]pyrimidin-7-yl)-2-(trifluoromethyl)phenoxy)pentan-2-amine]"
16,352,"CC(C)C[C@](C)(N)COc1ncc(-c2cc(NC3CCOC3)ncn2)cc1Cl (stereo partly drawn) [Example 449, 6-(6-(((S)-2-amino-2,4-dimethylpentyl)oxy)-5-chloropyridin-3-yl)-N-(tetrahydrofuran-3-yl)pyrimidin-4-amine]"
17,0.4,"CC(C)C[C@](C)(N)COc1ccc(-c2ncnc3[nH]ccc23)cc1C(F)(F)F [Example 363, (S)-1-(4-(7H-pyrrolo[2,3-d]pyrimidin-4-yl)-2-(trifluoromethyl)phenoxy)-2,4-dimethylpentan-2-amine]"
18,265,"Cc1cc(-c2ccnc3cc(C4CC4)nn23)cnc1OC[C@](C)(N)CC(C)C [Example 266, (R)-1-((5-(2-cyclopropylpyrazolo[1,5-a]pyrimidin-7-yl)-3-methylpyridin-2-yl)oxy)-2,4-dimethylpentan-2-amine]"
19,184,"CC(=O)Nc1cc(-c2ccc(OC[C@@](C)(N)CC(C)C)c(F)c2)n2nccc2n1 [Example 463, (S)—N-(7-(4-((2-amino-2,4-dimethylpentyl)oxy)-3-fluorophenyl)pyrazolo [1,5-a]pyrimidin-5-yl) acetamide]"

row,IC50 [nM],SMILES
1,132,"COCc1nc2c(-c3ccc(OC[C@@](C)(N)CC(C)C)c(C)c3)ccnc2[nH]1 [Example 296, (S)-1-(4-(2-(methoxymethyl)-3H-imidazo[4,5-b]pyridin-7-yl)-2-methylphenoxy)-2,4-dimethylpentan-2-amine]"
2,0.7,"CC(C)C[C@](C)(N)COc1ccc(-c2ccnc(NC(=O)CC3CCCC3)c2)cc1C(F)(F)F [Example 392, (S)—N-(4-(4-((2-amino-2,4-dimethylpentyl)oxy)-3-(trifluoromethyl)phenyl)pyridin-2-yl)-2-cyclopentylacetamide]"
3,11,"Cc1cn2nccc(-c3ccc(OC[C@@](C)(N)CC(C)C)c(F)c3)c2n1 [Example 497, (S)-1-(2-fluoro-4-(2-methylimidazo [1,2-b]pyridazin-8-yl)phenoxy)-2,4-dimethylpentan-2-amine]"
4,278,"CC(C)C[C@](C)(N)COc1cc(F)c(-c2ccnc3ccnn23)cc1F [Example 489, (S)-1-(2,5-difluoro-4-(pyrazolo[1,5-a]pyrimidin-7-yl)phenoxy)-2,4-dimethylpentan-2-amine]"
5,285,"Cc1nc2nccc(-c3ccc(OC[C@@](C)(N)CC(C)C)c(C#N)c3)c2nc1C [Example 252, (S)-2-((2-amino-2,4-dimethylpentyl)oxy)-5-(2,3-dimethylpyrido[2,3-b]pyrazin-8-yl)benzonitrile]"
6,0.4,"CC(C)C[C@](C)(N)COc1ccc(-c2ccnc3ccnn23)nc1C(F)F [Example 322, (S)-1-((2-(difluoromethyl)-6-(pyrazolo[1,5-a]pyrimidin-7-yl)pyridin-3-yl)oxy)-2,4-dimethylpentan-2-amine]"
7,1,"CC(C)C[C@](C)(N)COc1ccc(-c2ccnc3ccnn23)cc1Cl [Example 456, (S)-1-(2-chloro-4-(pyrazolo [1,5-a]pyrimidin-7-yl)phenoxy)-2,4-dimethylpentan-2-amine]"
8,262,"CC(C)C[C@](C)(N)COc1ccc(-c2ccnc3cc(C(F)(F)F)nn23)cc1F [Example 335, (S)-1-(2-fluoro-4-(2-(trifluoromethyl)pyrazolo[1,5-a]pyrimidin-7-yl)phenoxy)-2,4-dimethylpentan-2-amine]"
9,3.4,"COC(=O)Nc1cc(-c2ccc(OC[C@@](C)(N)CC(C)C)c3ncsc23)ccn1 [Example 269, (S)-methyl (4-(4-((2-amino-2,4-dimethylpentyl)oxy)benzo[d]thiazol-7-yl)pyridin-2-yl)carbamate]"
10,1.5,"Cc1csc(Nc2nccc(-c3ccc(OC[C@@](C)(N)CC(C)C)c(C)c3)n2)n1 [Example 381, (S)—N-(4-(4-((2-amino-2,4-dimethylpentyl)oxy)-3-methylphenyl)pyrimidin-2-yl)-4-methylthiazol-2-amine]"
11,1.2,"CC(C)C[C@](C)(N)COc1ccc(-c2ccnc3cc[nH]c23)cc1C(F)(F)F [Example 424, (S)-1-(4-(1H-pyrrolo[3,2-b]pyridin-7-yl)-2-(trifluoromethyl)phenoxy)-2,4-dimethylpentan-2-amine]"
12,30,"Cc1cc(-c2ccnn3cc(C(F)(F)F)nc23)ccc1OC[C@@](C)(N)CC(C)C [Example 500, (S)-2,4-dimethyl-1-(2-methyl-4-(2-(trifluoromethyl)imidazo[1,2-b]pyridazin-8-yl)phenoxy)pentan-2-amine]"
13,0.8,"Cc1csc(Nc2nccc(-c3ccc(OC[C@@](C)(N)CC(C)C)c(C(F)(F)F)c3)n2)n1 [Example 376, (S)—N-(4-(4-((2-amino-2,4-dimethylpentyl)oxy)-3-(trifluoromethyl)phenyl)pyrimidin-2-yl)-4-methylthiazol-2-amine]"
14,2.9,"CC(C)C[C@](C)(N)COc1ccc(-c2ccnc3ccnn23)cc1F [Example 461, (S)-1-(2-fluoro-4-(pyrazolo [1,5-a]pyrimidin-7-yl)phenoxy)-2,4-dimethylpentan-2-amine]"
15,0.4,"CC(C)C[C@](C)(N)COc1ccc(-c2ccnc3[nH]ncc23)cc1C(F)(F)F [Example 292, (S)-1-(4-(1H-pyrazolo[3,4-b]pyridin-4-yl)-2-(trifluoromethyl)phenoxy)-2,4-dimethylpentan-2-amine]"
16,5.3,"CC(C)C[C@](C)(N)COc1ccc(-c2ccnc3c2CC(=O)N3)cc1C#N [Example 302, (S)-2-((2-amino-2,4-dimethylpentyl)oxy)-5-(2-oxo-2,3-dihydro-1H-pyrrolo[2,3-b]pyridin-4-yl)benzonitrile]"
17,0.45,"CC(C)C[C@](C)(N)COc1ccc(-c2ccnc(Nc3nccs3)c2)cc1Cl [Example 257, (S)—N-(4-(4-((2-amino-2,4-dimethylpentyl)oxy)-3-chlorophenyl)pyridin-2-yl)thiazol-2-amine]"
18,0.3,"CC(C)C[C@](C)(N)COc1ccc(-c2ccnc(NC(=O)c3cnn[nH]3)c2)cc1C(F)(F)F [Example 406, (S)—N-(4-(4-((2-amino-2,4-dimethylpentyl)oxy)-3-(trifluoromethyl)phenyl)pyridin-2-yl)-1H-1,2,3-triazole-5-carboxamide]"
